This note sets out measurements from patent publication US20060018827A1, “Positron therapy of inflammation, infection and disease” (priority 2004, published 2006).

What all share (assay type): in vivo, mouse
For series [1], the system named is mammary tumors of PyMT mice. Kind of series: PET imaging of PyMT mice with ^18F-FDG. To be noted: PET 1 hour after i.p. 0.5-2.0 mCi. The method, then: (§1) Animals. All procedures involving mice were conducted in accordance with the National Institutes of Health regulations concerning the use and care of experimental animals. The study of mice was approved by the Albert Einstein College of Medicine (AECOM) Animal Use Committee. Transgenic mice expressing the polyoma middle T antigen (PyMT) in the mammary epithelium under the control of mouse mammary tumor virus (MMTV) long terminal repeat were provided by Dr. W. J. Muller (McMaster University, Ontario, Canada) and then bred at AECOM. At the age of 10 weeks these mice have multiple mammary tumors 0.15-0.17 cm in diameter. In mice older than 18 weeks the tumors are more than 1 cm in diameter. MMTV-NeuT mice (Muller et al. 1988), which carry erbB-2 (Neu), one of the better known human breast cancer oncogenes, were purchased from Jackson Laboratories. MMTV-NeuT mice were obtained as retired breeders and some of them developed mammary tumors at the age of 5 months, whereas others remained-tumor free until 6-7 months of age. C3H/B6 female mice lacking the PyMT transgene were used as healthy controls in therapy experiments. […]
(§2) Imaging of mice with ^18F-FDG. […] The tumor to liver ratios (TLRs) were calculated by the formula TLR=counts per pixel in tumor divided by counts per pixel in liver.

The test system of series [2] is mammary tumors of MMTV-neuT mice. The experiment in a line: PET imaging of MMTV-neuT mice with ^18F-FDG. The following applies: PET 1 hour after i.p. 0.5-2.0 mCi. On the procedure: as §1, §2
A further series deals with xenografted Notch tumor. The experiment in a line: PET-CT imaging of Notch tumor-bearing mice with ^18F-FDG. The following applies: nude mice with Notch tumor; PET-CT 1 hour after i.p. 0.5 mCi. On the procedure: Notch cell line. Mouse mammary gland cell line 5505 was derived from mammary tumors arising in transgenic mice which express an activated form of Notch 4 from the mouse mammary tumor virus long terminal repeat (MMTV-LTR) promoter/enhancer (Fitzgerald et al. 2000). This cell line is further referred to herein as Notch cells. The Notch cells were cultured in DMEM supplemented with 10% FCS, 10% NCTC-109, 1% non-essential amino acids, […] D-glucose and 1% penicillin-streptomycin.
Animals. All procedures involving mice were conducted in accordance with the National Institutes of Health regulations concerning the use and care of experimental animals. The study of mice was approved by the Albert Einstein College of Medicine (AECOM) Animal Use Committee. Transgenic mice expressing the polyoma middle T antigen (PyMT) in the mammary epithelium under the control of mouse mammary tumor virus (MMTV) long terminal repeat were provided by Dr. W. J. Muller (McMaster University, Ontario, Canada) and then bred at AECOM. At the age of 10 weeks these mice have multiple mammary tumors 0.15-0.17 cm in diameter. […]
Notch tumor-bearing animals were fasted and anesthetized as described above. […] The tumor to normal muscle ratio (TNR) was calculated according to the formula: TNR=average counts per pixel in tumor/average counts per pixel in normal muscle.

Several values for one entry are separate records, joined by “and”; a condition that tells them apart may be missing. Equal entries are not always repeated.

As for `O=C[C@H]([18F])[C@@H](O)[C@H](O)[C@H](O)CO` [^18F-FDG, ^18F-2-deoxy-2-fluoro-D-glucose], the “tumor to liver ratio (TLR), mean±SD” value in series [1] is recorded as 1.6±0.1; in series [2] it was 1.6±0.4. In addition, the “tumor to normal muscle ratio (TNR)” value in the series on xenografted Notch tumor was 3.24 and 3.24±0.20.
